For series [1], the system named is Phytophthora infestans. The class given is in vivo. As to conditions: tomato, preventive spray, 100 ppm of active ingredient, evaluated 7 days after inoculation.
The test system of series [2] is Plasmopara viticola. Briefly: Plasmopara test (grapevines)/preventive. Type of series: in vivo. The settings on record: preventive spray, 10 ppm of active ingredient, evaluated 6 days after inoculation. The protocol:
Solvent: 24.5 parts by weight of acetone • 24.5 parts by weight of dimethylacetamide
Emulsifier: 1 part by weight of alkylaryl polyglycol ether
To produce a suitable preparation of active compound, 1 part by weight of active compound is mixed with the stated amounts of solvent and emulsifier, and the concentrate is diluted with water to the desired concentration.
To test for preventive activity, young plants are sprayed with the preparation of active compound at the stated rate of application. After the spray coating has dried on, the plants are inoculated with an aqueous spore suspension of Plasmopara viticola and then remain for 1 day in an incubation cabinet at approximately 20° C. and a relative atmospheric humidity of 100%. The plant is subsequently placed for 4 days in a greenhouse at approximately 21° C. and a relative atmospheric humidity of approximately 90%. The plants are then misted and placed for 1 day in an incubation cabinet.
The test is evaluated 6 days after the inoculation. 0% means an efficacy which corresponds to that of the untreated control, while an efficacy of 100% means that no disease is observed.

For series [3] the following is noted: pH 2.7.
Series [4] concerns Phytophthora infestans. The class given is in vivo. The settings on record: tomato plants, spray, 500 ppm, grading 5 days after contamination.

From US9090600B2, “Fungicidal 4-substituted-3-{phenyl[(heterocyclylmethoxy)imino]methyl}-1,2,4-oxadizol-5(4H)-one derivatives” (BAYER INTELLECTUAL PROPERTY GMBH, priority 2011, dated 2015) come the findings set out here.

Where two headings read alike, the source gives them in different places. Marks after values point to notes of the source that are not given here.

Turning to `Cn1c(/C(=N\OCc2cccc(NC(=O)OCCC3CCCCC3)n2)c2ccccc2)noc1=O` [Example 5], the Eff. % came to 95% in series [1] and 88% in series [2]. The lipophilicity (LogP) (in general, the decadic logarithm of the partition coefficient of the neutral form, usually between octanol and water) in series [3] was 5.27 [a].
In the same order, the values of `Cn1c(/C(=N\OCc2cccc(NC(=O)OCCc3ccccc3)n2)c2ccccc2)noc1=O` [Example 7] are 95%, 96% and 4.15 [a].
Consider `CCCCCCC(=O)Nc1nc(CO/N=C(/c2ccccc2)c2noc(=O)n2C)cs1` [Example 9], for which the values for the Eff. % in series [1] and in series [2] were 95% and 94%, respectively. Further, the LogP in series [3] is 4.13 [a].
Regarding `Cn1c(/C(=N\OCc2csc(NC(=O)C3COc4ccccc4O3)n2)c2ccccc2)noc1=O` (stereo not drawn) [Example 10], the Eff. % in series [1] came out at 95%; in series [2], 96%. Further, the LogP in series [3] was 3.62 [a].
In the case of `Cn1c(/C(=N\OCc2csc(NC(=O)C3CCc4ccccc4O3)n2)c2ccccc2)noc1=O` (stereo not drawn) [Example 11], the Eff. % in series [1] worked out at 100%; in series [2], 98%. The log partition coefficient (LogP) in series [3] is 3.94 [a].
As to `CCCCCOC(=O)Nc1nc(CO/N=C(/c2ccccc2)c2noc(=O)n2C)cs1` [Example 12], the Eff. % in series [1] is listed as 95%; in series [2], 94%. For the same compound, in series [3], the lipophilicity (LogP) is 4.11 [a].
In the same order, the values of `CCCCC(=O)Nc1nc(CO/N=C(/c2ccccc2)c2noc(=O)n2C)cs1` [Example 13] are 95%, 93% and 3.37 [a].
On to `CCCCCOC(=O)Nc1cccc(CO/N=C(\c2ccccc2)c2noc(=O)n2C)n1` [Example 26], for which, in series [1], the Eff. % was determined as 93%. Moreover, the lipophilicity (LogP) in series [3] is 4.24 [a].
The corresponding values for `C#CCCOC(=O)Nc1cccc(CO/N=C(/c2ccccc2)c2noc(=O)n2C(F)F)n1` [Example 58] are 80% and 3.64 [a].
`C#CCCOC(=O)Nc1cccc(CO/N=C(/c2ccccc2)c2noc(=O)n2CC#N)n1` [Example 70] returned an Eff. % in series [1] of 84%. Besides, the lipophilicity (LogP) in series [3] was 3.31 [a].
As for `Cn1c(/C(=N\OCc2cccc(NC(=O)C3Cc4ccccc4CO3)n2)c2ccccc2)noc1=O` (stereo not drawn) [Example 85], the Eff. % in series [4] amounted to 99%; in series [2] it was 73%. Further, the lipophilicity (LogP) in series [3] was 4.17 [a].
As to `C#CCCOC(=O)Nc1cccc(CO/N=C(/c2ccccc2)c2noc(=O)n2CC#C)n1` [Example 86], the Eff. % in series [1] was 90%. Also, the LogP in series [3] is 3.46 [a].
Consider `CC(C)CCC(=O)Nc1cccc(CO/N=C(/c2ccccc2)c2noc(=O)n2C)n1` [Example 102], for which the Eff. % is reported as 100% in series [4] and 91% in series [2]. Moreover, the log partition coefficient (LogP) in series [3] was 3.85 [a].
`CCn1c(/C(=N\OCc2cccc(NC(=O)OC(C)(C)C)n2)c2ccccc2)noc1=O` [Example 152]: the Eff. % in series [4] is 95%; in series [2], 70%. In addition, the lipophilicity (LogP) in series [3] was 4.26 [a].
Compound `Cn1c(/C(=N\OCc2csc(NC(=O)C(C)(C)C)n2)c2ccccc2)noc1=O` [Example 154] had an Eff. % in series [1] of 95%. In addition, the lipophilicity (LogP) in series [3] is 3.42 [a].
With `Cn1c(/C(=N\OCc2cccc(NC(=O)CCC3(C)CC3)n2)c2ccccc2)noc1=O` [Example 166], the Eff. % worked out at 99% in series [4] and 95% in series [2]. The LogP in series [3] was 3.87 [a].
Turning to `Cn1c(/C(=N\OCc2cccc(NC(=O)CC3CCCCC3)n2)c2ccccc2)noc1=O` [Example 208], the Eff. % in series [4] was 100%; in series [2] it was 91%. Besides, in series [3], the lipophilicity (LogP) is 4.26 [a].
`CCCCOCC(=O)Nc1cccc(CO/N=C(/c2ccccc2)c2noc(=O)n2C)n1` [Example 240]: the figures for the Eff. % in series [4] and in series [2] were 100% and 80%, respectively. For the same compound, in series [3], the lipophilicity (LogP) was 3.97 [a].
For the compound `CCCCC(C)C(=O)Nc1cccc(CON=C(c2ccccc2)c2noc(=O)n2C)n1` (stereo not drawn) [Example 244], the Eff. % in series [4] is listed as 99%; in series [2] it was 86%. Also, the log partition coefficient (LogP) in series [3] was 4.2 [a].
`Cn1c(/C(=N\OCc2cccc(NC(=O)c3cccc(I)c3)n2)c2ccccc2)noc1=O` [Example 281]: the Eff. % in series [4] and in series [2] was 97% in each case. Moreover, the lipophilicity (LogP) in series [3] is 4.31 [a].
For `CCCCC(CC)C(=O)Nc1cccc(CO/N=C(/c2ccccc2)c2noc(=O)n2C)n1` (stereo not drawn) [Example 284], the Eff. % is 95% in series [4] and 79% in series [2]. Besides, the lipophilicity (LogP) in series [3] was 4.49 [a].
On to `CC1c2ccccc2COC1C(=O)Nc1cccc(CO/N=C(/c2ccccc2)c2noc(=O)n2C)n1` (stereo not drawn) [Example 291], for which the Eff. % in series [4] is given as 100%; in series [2] it was 77%. For the same compound, the LogP in series [3] was 4.35 [a].
In the same order, the values of `C#CCCCC(=O)Nc1cccc(CO/N=C(/c2ccccc2)c2noc(=O)n2C)n1` [Example 302] are 100%, 92% and 3.17 [a].
Take `Cc1ccc(OC(C)C(=O)Nc2nc(CO/N=C(/c3ccccc3)c3noc(=O)n3C)cs2)cc1` (stereo not drawn) [Example 312]: the Eff. % in series [4] worked out at 94%; in series [2], 95%. Besides, in series [3], the log partition coefficient (LogP) is 4.02 [a].
`COc1cccc(OCC(=O)Nc2nc(CO/N=C(/c3ccccc3)c3noc(=O)n3C)cs2)c1` [Example 318]: the Eff. % came to 99% in series [4] and 93% in series [2]. Further, in series [3], the lipophilicity (LogP) is 3.53 [a].
`CC(Oc1cccc(Cl)c1)C(=O)Nc1nc(CO/N=C(/c2ccccc2)c2noc(=O)n2C)cs1` (stereo not drawn) [Example 321]: the Eff. % is listed as 97% in series [4] and 82% in series [2]. In addition, in series [3], the LogP is 4.1 [a].
Turning to `CCC(Oc1ccccc1)C(=O)Nc1nc(CO/N=C(/c2ccccc2)c2noc(=O)n2C)cs1` (stereo not drawn) [Example 322], in series [1], the Eff. % is given as 75%. In series [3], the log partition coefficient (LogP) is 3.99 [a].
On to `Cc1ccc(C)c(C(=O)Nc2cccc(CO/N=C(/c3ccccc3)c3noc(=O)n3C)n2)c1` [Example 327], for which the Eff. % worked out at 100% in series [4] and 95% in series [2]. Further, the LogP in series [3] is 4.06 [a].
In the case of `Cc1ccc(C)c(C(=O)Nc2nc(CO/N=C(/c3ccccc3)c3noc(=O)n3C)cs2)c1` [Example 336], the Eff. % came to 99% in series [4] and 91% in series [2]. In addition, the LogP in series [3] is 3.94 [a].
For the compound `CC(C)CC(=O)Nc1cccc(CO/N=C(/c2ccccc2)c2noc(=O)n2C)n1` [Example 340], the Eff. % is recorded as 100% in series [4] and 79% in series [2]. In addition, the LogP in series [3] was 3.44 [a].
As for `C#CCCOC(=O)Nc1cccc(CO/N=C(/c2cccc(C)c2)c2noc(=O)n2C)n1` [Example 343], the Eff. % in series [4] was 100%; in series [2], 95%. Further, the LogP in series [3] is 3.59 [a].
Turning to `Cc1cccc(C(=O)Nc2cccc(CO/N=C(/c3ccccc3)c3noc(=O)n3C)n2)c1` [Example 344], the Eff. % in series [4] was 100%; in series [2], 93%. Further, the lipophilicity (LogP) in series [3] is 3.87 [a].
In the same order, the values of `Cn1c(/C(=N\OCc2cccc(NC(=O)c3ccc(Cl)c(Cl)c3)n2)c2ccccc2)noc1=O` [Example 352] are 100%, 79% and 4.54 [a].
Consider `CCCCCC(=O)Nc1cccc(CO/N=C(/c2cccc(C)c2)c2noc(=O)n2C)n1` [Example 355], for which the Eff. % in series [4] is recorded as 100%; in series [2], 75%. In series [3], the LogP was 4.24 [a].
In the same order, the values of `Cn1c(/C(=N\OCc2cccc(NC(=O)CC3CCCC3)n2)c2ccccc2)noc1=O` [Example 365] are 100%, 98% and 3.92 [a].
Consider `CCCCCC(=O)Nc1cccc(CO/N=C(/c2cccc(F)c2)c2noc(=O)n2C)n1` [Example 376], for which the results for the Eff. % in series [4] and in series [2] were 100% and 93%, respectively. For the same compound, in series [3], the lipophilicity (LogP) is 3.99 [a].
Consider `Cn1c(/C(=N\OCc2csc(NC(=O)Cc3ccccc3)n2)c2ccccc2)noc1=O` [Example 378], for which the Eff. % was 100% in series [4] and 95% in series [2]. In addition, the LogP in series [3] was 3.37 [a].
For `Cn1c(/C(=N\OCc2cccc(NC(=O)c3cccc(Br)c3)n2)c2ccccc2)noc1=O` [Example 380], the Eff. % in series [4] is 93%; in series [2], 95%. Also, the LogP in series [3] was 4.16 [a].
The corresponding values for `Cn1c(/C(=N\OCc2cccc(NC(=O)CCC3CCC3)n2)c2ccccc2)noc1=O` [Example 389] are 99%, 100% and 4.02 [a].
In the same order, the values of `Cc1ccc(C(=O)Nc2cccc(CO/N=C(/c3ccccc3)c3noc(=O)n3C)n2)cc1C` [Example 401] are 99%, 90% and 4.16 [a].
As for `Cn1c(/C(=N\OCc2cccc(NC(=O)CCCCCl)n2)c2ccccc2)noc1=O` [Example 404], the Eff. % worked out at 98% in series [4] and 87% in series [2]. Besides, the log partition coefficient (LogP) in series [3] is 3.44 [a].
